Read-outs that look alike come from different tables or passages of the source.
Experiments:
[1] = molecular target: Recombinant ROCK2 (amino acids 1-552) (Homo sapiens (Human), UniProt O75116); assay: Z′-Lyte kinase assay, ROCK2; format: biochemical; conditions: for inhibition at 3 µM: 3 μM compound; for inhibition at 3 µM / inhibition at 0.5 µM: read-out: ROCK2 % inh. @ [conc]; for inhibition at 0.5 µM: 0.5 μM compound
Outline: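 Recombinant human ROCK1 (aa 1-535) or ROCK2 (aa 1-552) activity read by Z′-Lyte kinase assay. Percent inhibition at 1 μM compound was normalized to DMSO control; IC50 from 9-point 2-fold serial dilutions by nonlinear regression.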

[2] = system: ppMlc (T18/S19) levels in A7R5 cells; assay: A7R5 in-cell ELISA (pMLC); format: cell-based, Rat; conditions: Rattus norvegicus, A7R5, A7R5 cells; for inhibition at 10 µM: 10 μM compound, read-out: pMLC % inh A7R5 @ [conc]
Outline: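 A7R5 rat aortic smooth muscle cells seeded 24 h, then treated 90 min with a 9-point 2-fold compound dilution series. Fixed cells probed for ppMlc (T18/S19) by colorimetric in-cell ELISA; cellular IC50 from nonlinear regression curve fit.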

[3] = molecular target: Recombinant ROCK1 (amino acids 1-535) (Homo sapiens (Human), UniProt Q13464); assay: Z′-Lyte kinase assay, ROCK1; format: biochemical; conditions: for inhibition at 3 µM: 3 μM compound; for inhibition at 3 µM / inhibition at 0.5 µM: read-out: ROCK1 % inh. @ [conc]; for inhibition at 0.5 µM: 0.5 μM compound
Protocol: Determination of Compound's ROCK Inhibitory Activity In Vitro (Z'Lyte Assay).
Recombinant ROCK1 (amino acids 1-535) and ROCK2 (amino acids 1-552) proteins were purchased from ThermoFisher Scientific. Compound's activities were measured by Z′-lyte kinase kit (ThermoFisher Scientific) and IC50 was calculated
In vitro activities for the compounds were measured with Z′-lyte kinase kit (ThermoFisher Scientific). The percent inhibition rate was calculated by normalizing the kinase activity value obtained with 1 μM compound treatment against DMSO control value and then applied to the formula, [1-(compound/DMSO)]×100%. IC50s were calculated using the nonlinear regression curve fit function of the GraphPad Prism software with kinase activities data measured with 9 points 2-fold serial dilution of compounds treatment. In cell pMLC IC50s were calculated with data obtained from A7R5 cell experiments. A7R5 cells were treated with 9 points 2-fold serial dilution of compounds and ppMlc (T18/S19) levels were determined to calculate cellular IC50 values of the compounds using the nonlinear regression curve fit function of the GraphPad Prism software. NIH3T3 cells stably expressing ACTA2-promoter-driven-luciferase were applied to measure ROCK compounds functional IC50s in cells. Cells were plated in 96 well plates to confluence and treated with 9 points serial dilution of compounds in combination with TGFβ1 for 24 hr. Luciferase activities were measured and compound's IC50s were calculated using the nonlinear regression curve fit function of the GraphPad Prism software.

[4] = 9 points 2-fold serial dilution

Chain of Recombinant ROCK1 (amino acids 1-535) (Q13464 1-535): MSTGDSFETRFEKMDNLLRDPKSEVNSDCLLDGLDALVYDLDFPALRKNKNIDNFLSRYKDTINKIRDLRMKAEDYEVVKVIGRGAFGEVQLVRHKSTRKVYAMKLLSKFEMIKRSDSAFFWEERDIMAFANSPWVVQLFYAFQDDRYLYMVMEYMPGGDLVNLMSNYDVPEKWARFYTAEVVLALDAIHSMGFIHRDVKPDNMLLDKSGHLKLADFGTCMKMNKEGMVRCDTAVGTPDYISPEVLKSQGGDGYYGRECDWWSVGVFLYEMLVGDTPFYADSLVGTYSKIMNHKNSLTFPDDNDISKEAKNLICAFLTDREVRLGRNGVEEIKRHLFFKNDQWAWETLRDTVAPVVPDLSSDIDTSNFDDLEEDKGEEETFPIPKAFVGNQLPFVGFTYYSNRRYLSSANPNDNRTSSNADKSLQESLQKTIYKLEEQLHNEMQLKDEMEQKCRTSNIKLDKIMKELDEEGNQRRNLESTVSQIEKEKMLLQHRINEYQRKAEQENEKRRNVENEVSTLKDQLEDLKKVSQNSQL
Chain of Recombinant ROCK2 (amino acids 1-552) (O75116 1-552): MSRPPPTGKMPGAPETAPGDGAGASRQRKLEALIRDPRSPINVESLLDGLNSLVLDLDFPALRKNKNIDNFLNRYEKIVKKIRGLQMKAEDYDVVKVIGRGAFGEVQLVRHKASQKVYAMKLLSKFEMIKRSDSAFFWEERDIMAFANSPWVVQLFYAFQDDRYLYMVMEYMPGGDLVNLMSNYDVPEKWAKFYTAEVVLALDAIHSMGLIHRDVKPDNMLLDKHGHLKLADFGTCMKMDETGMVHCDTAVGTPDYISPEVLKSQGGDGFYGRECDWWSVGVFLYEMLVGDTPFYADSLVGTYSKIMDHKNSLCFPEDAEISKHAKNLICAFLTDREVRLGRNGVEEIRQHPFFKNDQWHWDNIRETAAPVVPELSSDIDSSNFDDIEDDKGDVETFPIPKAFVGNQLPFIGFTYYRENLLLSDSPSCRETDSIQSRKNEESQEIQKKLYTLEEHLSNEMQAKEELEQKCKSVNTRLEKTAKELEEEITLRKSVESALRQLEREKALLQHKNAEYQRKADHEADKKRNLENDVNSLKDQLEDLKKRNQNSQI

Row | SMILES | inhibition at 3 µM [1] [%] | IC50 [1, 4] [µM] | IC50 ([2]; ppMlc (T18/S19)) [nM] | inhibition at 3 µM [3] [%] | IC50 [3, 4] [µM] | IC50 [1] [µM] | inhibition at 10 µM [2] [%] | IC50 [3] [µM] | inhibition at 0.5 µM [1] [%] | inhibition at 0.5 µM [3] [%] | IC50 [2] [nM]
1 | Cc1cc(Nc2ccc(-c3ccncc3)cc2)nc(N2CCNC(C)CC2)n1 (stereo not drawn) [Example 245, 6-methyl-2-(5-methyl-1,4-diazepan-1-yl)-N-(4-(pyridin-4-yl)phenyl)pyrimidin-4-amine] | 100 | > 1 | 8220 | 100 | > 1 |  |  |  |  |  | 
2 | c1cncc(-c2cccc(Nc3ccnc(N4CCNCC4)n3)c2)c1 [Example 346, 2-(piperazin-1-yl)-N-(3-(pyridin-3-yl)phenyl)pyrimidin-4-amine] |  |  |  |  |  | > 10 | 12.3 | > 10 |  |  | 
3 | c1ccc(C2CCN(c3nccc(Nc4ccc(-c5ccncc5)cc4)n3)CCN2)cc1 (stereo not drawn) [Example 271, 2-(5-phenyl-1,4-diazepan-1-yl)-N-(4-(pyridin-4-yl)phenyl)pyrimidin-4-amine] |  | > 1 |  |  | > 1 |  | 28.3 |  |  |  | 
4 | c1cc(Nc2ccc3[nH]ncc3c2)nc(N2CCC3(CCNCC3)C2)n1 [Example 202, N-(2-(2,8-diazaspiro[4.5]decan-2-yl)pyrimidin-4-yl)-1H-indazol-5-amine] | 88.3 |  |  | 88.4 |  |  | 13.8 |  |  |  | 
5 | c1ccc(C2CN(c3nccc(Nc4ccc5[nH]ncc5c4)n3)CCCN2)cc1 (stereo not drawn) [Example 64, N-(2-(3-phenyl-1,4-diazepan-1-yl)pyrimidin-4-yl)-1H-indazol-5-amine] |  | 0.24 | 1040 |  | 0.325 |  | 63.9 |  |  |  | 
6 | c1cc2nc(N3CCCNCC3)nc(Nc3ccc4[nH]ncc4c3)c2s1 [Example 10, 2-(1,4-diazepan-1-yl)-N-(1H-indazol-5-yl)thieno[3,2-d]pyrimidin-4-amine] |  | 0.02 | 565 |  |  |  | 90 |  | 98 | 94 | 
7 | c1cc2[nH]ncc2cc1Nc1nc(N2CCCNCC2)nc2c1COC2 [Example 11, 2-(1,4-diazepan-1-yl)-N-(1H-indazol-5-yl)-5,7-dihydrofuro[3,4-d]pyrimidin-4-amine] |  | 0.031 | 1120 |  |  |  | 89 |  | 93 | 76 | 
8 | c1cc(Nc2ccc3[nH]ncc3c2)nc(N2CCCNCC2)n1 [Example 35, N-(2-(1,4-diazepan-1-yl)pyrimidin-4-yl)-1H-indazol-5-amine] | 98.9 |  |  | 100 |  | 0.015 | 68.1 | 0.016 |  |  | 416
9 | c1ccc(C2CN(c3nccc(Nc4ccc(-c5ccncc5)cc4)n3)CCCN2)cc1 (stereo not drawn) [Example 18, 2-(3-phenyl-1,4-diazepan-1-yl)-N-(4-(pyridin-4-yl)phenyl)pyrimidin-4-amine] |  | 0.206 |  |  | 0.332 |  | 11 |  |  |  | 
10 | CCC1CNCCN1c1ncc(Cl)c(Nc2ccc3[nH]ncc3c2)n1 (stereo not drawn) [Example 187, N-(5-chloro-2-(2-ethylpiperazin-1-yl)pyrimidin-4-yl)-1H-indazol-5-amine] |  | 0.111 | 665 |  | 0.058 |  | 59.8 |  |  |  | 
11 | CC(C)C1CCN(c2nccc(Nc3ccc(-c4ccncc4)cc3)n2)CCN1 (stereo not drawn) [Example 250, 2-(5-isopropyl-1,4-diazepan-1-yl)-N-(4-(pyridin-4-yl)phenyl)pyrimidin-4-amine] |  | > 1 | 5440 |  | > 1 |  | 50.4 |  |  |  | 
12 | c1cc(-c2cn[nH]c2)ccc1Nc1nc(N2C3CCC2CNC3)nc2c1COC2 [Example 279, N-(4-(1H-pyrazol-4-yl)phenyl)-2-(3,8-diazabicyclo[3.2.1]octan-8-yl)-5,7-dihydrofuro[3,4-d]pyrimidin-4-amine] |  |  |  |  |  | 0.04 |  |  | 85 | 76 | 
13 | c1cc2nc(N3C4CCC3CNC4)nc(Nc3ccc4[nH]ncc4c3)c2s1 [Example 282, 2-(3,8-diazabicyclo[3.2.1]octan-8-yl)-N-(1H-indazol-5-yl)thieno[3,2-d]pyrimidin-4-amine] |  |  |  |  |  | < 0.0001 |  |  | 99 | 101 | 
